Results as given in PubChem BioAssay AID1845200 (Molecular Pharmacology Branch, DTP, NCI, 2023).
pIC50: −log10 of the molar value.

System: ASPS-1 complex tumor spheroids, viability
Assay: Anticancer human tumor ASPS-1 cell line growth inhibition;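 note: spheroids exposed to agents for 7 days after 3 days of growth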;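 for viability, T/C: 100% = DMSO vehicle treated spheroids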
Conditions: for pIC50: curve of first compound; for viability, T/C: stronger effect = lower value
Outline: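 Complex tumor spheroids combined malignant cells with endothelial cells and mesenchymal stem cells. DNA-damaging drugs and DNA repair inhibitors were tested alone and in combination, at half-log dilutions down from clinical Cmax (top 10 microM if Cmax unknown), 0.25% DMSO final.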

[1] = second compound 1 µM, first compound 0.0316 µM
[2] = second compound 1 µM, first compound 0.1 µM
[3] = second compound 1 µM, first compound 0.316 µM
[4] = second compound 1 µM, first compound 1 µM
[5] = second compound 1 µM, first compound 3.16 µM
[6] = second compound 1 µM, first compound 10 µM
[7] = second compound 3.16 µM, first compound 0.0316 µM
[8] = second compound 3.16 µM, first compound 0.1 µM
[9] = second compound 3.16 µM, first compound 0.316 µM
[10] = second compound 3.16 µM, first compound 1 µM
[11] = second compound 3.16 µM, first compound 3.16 µM
[12] = second compound 3.16 µM, first compound 10 µM
[13] = second compound 10 µM, first compound 0.0316 µM
[14] = second compound 10 µM, first compound 0.1 µM
[15] = second compound 10 µM, first compound 0.316 µM
[16] = second compound 10 µM, first compound 1 µM
[17] = second compound 10 µM, first compound 3.16 µM
[18] = second compound 10 µM, first compound 10 µM
[19] = second compound 31.6 µM, first compound 0.0316 µM
[20] = second compound 31.6 µM, first compound 0.1 µM
[21] = second compound 31.6 µM, first compound 0.316 µM
[22] = second compound 31.6 µM, first compound 1 µM
[23] = second compound 31.6 µM, first compound 3.16 µM
[24] = second compound 31.6 µM, first compound 10 µM
[25] = second compound 100 µM, first compound 0.0316 µM
[26] = second compound 100 µM, first compound 0.1 µM
[27] = second compound 100 µM, first compound 0.316 µM
[28] = second compound 100 µM, first compound 1 µM
[29] = second compound 100 µM, first compound 3.16 µM
[30] = second compound 100 µM, first compound 10 µM

| SMILES | pIC50 (second compound 1 µM) | pIC50 (second compound 3.16 µM) | pIC50 (second compound 10 µM) | pIC50 (second compound 31.6 µM) | pIC50 (second compound 100 µM) | viability, T/C [1] [%] | viability, T/C [2] [%] | viability, T/C [3] [%] | viability, T/C [4] [%] | viability, T/C [5] [%] | viability, T/C [6] [%] | viability, T/C [7] [%] | viability, T/C [8] [%] | viability, T/C [9] [%] | viability, T/C [10] [%] | viability, T/C [11] [%] | viability, T/C [12] [%] | viability, T/C [13] [%] | viability, T/C [14] [%] | viability, T/C [15] [%] | also measured |
| --- | --- | --- | --- | --- | --- | --- | --- | --- | --- | --- | --- | --- | --- | --- | --- | --- | --- | --- | --- | --- | --- |
| CC1COCCN1c1cc(-c2ccnn2C)c2ccnc(-c3ccn[nH]3)c2n1 (stereo not given) + Cn1nnc2c(C(N)=O)ncn2c1=O | 6.65 | > 7.50 | > 7.50 | > 7.50 | > 7.50 | 72.3 | 59.2 | 46.6 | 41.1 | 46.1 | 43.9 | 38.5 | 44 | 42.2 | 41.6 | 43 | 50.2 | 42.4 | 39.4 | 35.5 | viability, T/C [16]: 38.1%; viability, T/C [17]: 42.5%; viability, T/C [18]: 52.4%; viability, T/C [19]: 37.6%; viability, T/C [20]: 31.1%; viability, T/C [21]: 31.7%; viability, T/C [22]: 32.6%; viability, T/C [23]: 42.2%; viability, T/C [24]: 48.3%; viability, T/C [25]: 24.9%; viability, T/C [26]: 22.5%; viability, T/C [27]: 20.4%; viability, T/C [28]: 23.6%; viability, T/C [29]: 29.6%; viability, T/C [30]: 42% |
| COc1cc(C)[nH]c(=O)c1CN1CCc2c(Cl)cc(C(OC)C3COC3)c(Cl)c2C1=O (stereo not given) + Cn1nnc2c(C(N)=O)ncn2c1=O | < 5.00 | < 5.00 | < 5.00 | < 5.00 | < 5.00 | 107 | 104 | 99.2 | 98.6 | 94.7 | 96.7 | 103 | 101 | 103 | 104 | 103 | 90.8 | 75.3 | 83.9 | 94.9 | viability, T/C [16]: 86.8%; viability, T/C [17]: 91%; viability, T/C [18]: 81.2%; viability, T/C [19]: 80.4%; viability, T/C [20]: 82.5%; viability, T/C [21]: 82.5%; viability, T/C [22]: 84.1%; viability, T/C [23]: 82.7%; viability, T/C [24]: 75.2%; viability, T/C [25]: 81.8%; viability, T/C [26]: 78.6%; viability, T/C [27]: 72.9%; viability, T/C [28]: 72.7%; viability, T/C [29]: 69%; viability, T/C [30]: 70% |
| COc1ccc([C@@H](O)c2cc(-c3ncnc4cc(N5CCOCC5)ccc34)c(F)cc2Cl)nn1 + Cn1nnc2c(C(N)=O)ncn2c1=O | 5.01 | < 5.00 | 5.17 | 5.58 | 5.76 | 107 | 103 | 106 | 101 | 92 | 48.4 | 103 | 102 | 105 | 99.8 | 75.7 | 53.1 | 92 | 94.9 | 99 | viability, T/C [16]: 79.2%; viability, T/C [17]: 69.8%; viability, T/C [18]: 40.3%; viability, T/C [19]: 82.7%; viability, T/C [20]: 83.7%; viability, T/C [21]: 77.2%; viability, T/C [22]: 67.7%; viability, T/C [23]: 46.2%; viability, T/C [24]: 33.8%; viability, T/C [25]: 82.1%; viability, T/C [26]: 67.6%; viability, T/C [27]: 64.7%; viability, T/C [28]: 57.1%; viability, T/C [29]: 44.5%; viability, T/C [30]: 33.2% |
